Assays:
[1] = target: T1, NAD(P)-dependent oxidoreductase HS5.17 (CDP-6-D-glucitol synthase) (Campylobacter jejuni, UniProt A0A0U3AP28); assay: X-ray crystal structure, […] Å; type: binding; settings: tag-free enzyme; ternary complex with NADP(H); pH 9.0
T1 construct: full-length, N-terminal His6 tag (pET-28a), E. coli expression; tag removed by TEV for the 8V4G crystals, tag kept for 8V4H; dimer

[2] = target: T1, NAD(P)-dependent oxidoreductase HS5.17 (CDP-6-D-glucitol synthase); assay: X-ray crystal structure, […] Å; type: binding; settings: tagged enzyme; crystallized with NADP(H), which was not observed; pH 8.0
[3] = target: the molecule itself; assay: crystal structure; tag-free enzyme crystallized with 5 mM CDP and 5 mM NADP(H), PEG 8000, hexyleneglycol, 100 mM CHES pH 9.0; 2.0 Å; dimer in the asymmetric unit
[4] = target: the molecule itself; assay: crystal structure; tagged enzyme crystallized with 5 mM CDP-6-D-glucitol and 5 mM NADP(H), PEG 8000, 200 mM LiCl, 100 mM HEPPS pH 8.0; 2.2 Å; dimer in the asymmetric unit

`Nc1ccn([C@@H]2O[C@H](COP(=O)(O)OP(=O)(O)O)[C@@H](O)[C@H]2O)c(=O)n1` [CDP] was tested, and the “X-ray crystal structure, 2.0 Å” value [1] was “The first structure determined of the oxidoreductase was that in complex with NADP(H) and CDP”.

In the case of `Nc1ccn([C@@H]2O[C@H](COP(=O)(O)OP(=O)(O)OC[C@@H](O)[C@@H](O)[C@H](O)[C@@H](O)CO)[C@@H](O)[C@H]2O)c(=O)n1` [compound 3, CDP-6-D-glucitol], the “X-ray crystal structure, 2.2 Å” value [2] is reported as “The electron density was unambiguous for the CDP-6-D-glucitol ligands in both subunits”.

B1: NAD(P)-dependent oxidoreductase (HS5.17) from C. jejuni serotype HS:5, tag-free (enzyme, Campylobacter jejuni serotype HS:5)
chain: MNEILKKRLKLLKNNFGTHINKIANKKILITGANGYIGSILTLILHGNAKLYCLVRNKDKMIDRFQEICGDIDKIDIYEDLYKIQDKIDIVIHCAAPTQSDFFIENPIDTVDIIYTNTKNILDFSKKNNVEKIIFLSTMEIYGDVIGDNIVEDDIGKFSVTNIRNSYPLAKQISEFMVHSYSKKYSLSTAIVRLTQAIGPTAQINDNRVYMDFIRSAIKKSQITLFTKGETKREYIDVFDVATAIIFVMCEKKMFEIYNISNPNIFISIYDLAKTISAKLNVQVVFDLQRDTSQYLPSFSRRLNSKKIYQLGWTPLFDLNQSLDDMIKYIKEVNE
notes: putative NAD(P)-oxidoreductase HS5.17 of Campylobacter jejuni serotype HS:5 (ATCC 43433), UniProt A0A0U3AP28; gene synthesized and codon-optimized, in pET-28a(+) between NdeI and XhoI; electron density seen from Met 1 to Asn 334; His 0 left over from the purification tag; Crystallized with CDP and NADP(H) (PDB 8V4G); also called CDP-6-D-glucitol synthase; nucleotide sugar reductase; source: E. …
In the case of B1, the “stoichiometry N” value [3] is reported as 2.

B2: NAD(P)-dependent oxidoreductase (HS5.17) from C. jejuni serotype HS:5, N-terminally histidine-tagged (enzyme, Campylobacter jejuni serotype HS:5)
chain: MNEILKKRLKLLKNNFGTHINKIANKKILITGANGYIGSILTLILHGNAKLYCLVRNKDKMIDRFQEICGDIDKIDIYEDLYKIQDKIDIVIHCAAPTQSDFFIENPIDTVDIIYTNTKNILDFSKKNNVEKIIFLSTMEIYGDVIGDNIVEDDIGKFSVTNIRNSYPLAKQISEFMVHSYSKKYSLSTAIVRLTQAIGPTAQINDNRVYMDFIRSAIKKSQITLFTKGETKREYIDVFDVATAIIFVMCEKKMFEIYNISNPNIFISIYDLAKTISAKLNVQVVFDLQRDTSQYLPSFSRRLNSKKIYQLGWTPLFDLNQSLDDMIKYIKEVNE
notes: putative NAD(P)-oxidoreductase HS5.17 of Campylobacter jejuni serotype HS:5 (ATCC 43433), UniProt A0A0U3AP28; gene synthesized and codon-optimized, in pET-28a(+) between NdeI and XhoI; electron density continuous from Met 1 to Asn 334, tag seen from Glu (-7) to Met 1 in Subunit B; Crystallized with CDP-6-D-glucitol (PDB 8V4H); also called CDP-6-D-glucitol synthase; nucleotide sugar reductase; …
In the case of B2, the “stoichiometry N” value [4] is reported as 2.
